Molecular target: T1, Metabotropic glutamate receptor 1 (Homo sapiens, UniProt Q13255)
Assay: Compound was tested for inhibition of glutamate-evoked (10 uM) [Ca2+] mobilization in mGluR1-alpha expressed-CHO cells.
Format: cell-based

T1 sequence (Q13255 whole entry): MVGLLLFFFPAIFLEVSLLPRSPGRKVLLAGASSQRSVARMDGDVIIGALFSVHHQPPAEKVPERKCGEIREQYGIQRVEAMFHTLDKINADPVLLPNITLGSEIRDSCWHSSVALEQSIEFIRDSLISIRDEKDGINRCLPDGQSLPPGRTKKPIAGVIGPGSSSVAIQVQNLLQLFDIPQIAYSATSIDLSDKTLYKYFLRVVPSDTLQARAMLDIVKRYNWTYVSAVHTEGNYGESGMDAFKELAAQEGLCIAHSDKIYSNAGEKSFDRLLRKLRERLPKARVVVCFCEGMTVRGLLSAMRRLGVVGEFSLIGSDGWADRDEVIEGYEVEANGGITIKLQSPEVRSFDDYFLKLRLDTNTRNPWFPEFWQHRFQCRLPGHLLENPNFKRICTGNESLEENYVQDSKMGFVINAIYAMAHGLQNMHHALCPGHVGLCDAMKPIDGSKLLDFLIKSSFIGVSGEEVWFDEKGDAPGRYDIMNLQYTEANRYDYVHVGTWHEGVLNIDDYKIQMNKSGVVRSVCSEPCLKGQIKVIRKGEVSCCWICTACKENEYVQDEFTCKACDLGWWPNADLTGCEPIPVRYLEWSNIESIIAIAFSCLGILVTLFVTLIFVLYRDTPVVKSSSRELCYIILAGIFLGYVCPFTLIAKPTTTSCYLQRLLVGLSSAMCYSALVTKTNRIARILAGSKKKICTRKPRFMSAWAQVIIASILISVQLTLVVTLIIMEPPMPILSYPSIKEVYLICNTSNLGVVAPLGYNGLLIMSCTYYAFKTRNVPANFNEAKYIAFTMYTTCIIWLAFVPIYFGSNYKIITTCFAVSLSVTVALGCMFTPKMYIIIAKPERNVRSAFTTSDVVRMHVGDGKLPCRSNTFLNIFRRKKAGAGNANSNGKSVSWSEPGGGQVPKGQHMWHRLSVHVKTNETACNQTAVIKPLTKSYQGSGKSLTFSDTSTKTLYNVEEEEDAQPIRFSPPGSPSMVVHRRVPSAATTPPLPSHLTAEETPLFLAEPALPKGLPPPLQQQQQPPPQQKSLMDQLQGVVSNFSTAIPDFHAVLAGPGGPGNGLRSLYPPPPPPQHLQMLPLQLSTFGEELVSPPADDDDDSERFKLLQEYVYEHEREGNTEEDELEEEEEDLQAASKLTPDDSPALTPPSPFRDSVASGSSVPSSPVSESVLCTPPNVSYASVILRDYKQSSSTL

IC50	Compound
3 µM	O=C(Nc1ccccc1)C12CC1/C(=N\O)c1ccccc1O2 (stereo unspecified)
200 µM	NC(C(=O)O)c1ccc(C(=O)O)c(O)c1 (stereo unspecified)
10 µM	CN(C(=O)C12CC1/C(=N\O)c1ccccc1O2)c1ccccc1 (stereo unspecified)
700 µM	CC(N)(C(=O)O)c1ccc(C(=O)O)cc1 (stereo unspecified)
23 µM	CCOC(=O)C12CC1/C(=N\O)c1ccccc1O2 (stereo unspecified)

Molecular target: T1, Metabotropic glutamate receptor 1
Assay: Compound was tested for inhibition of glutamate-evoked (10 uM) [Ca2+] mobilization in Metabotropic glutamate receptor 1 expressed-CHO cells; NE: No effect at 1-100 uM
Format: cell-based

IC50	Compound
No effect	O=C1c2ccccc2OC2(C(=O)Nc3ccccc3)CC12 (stereo unspecified)
No effect	CN(C(=O)C12CC1C(=O)c1ccccc1O2)c1ccccc1 (stereo unspecified)
No effect	CN(C(=O)c1cc(=O)c2ccccc2o1)c1ccccc1
No effect	CCOC(=O)c1cc(=O)c2ccccc2o1
No effect	O=C(Nc1ccccc1)c1cc(=O)c2ccccc2o1
No effect	CCOC(=O)C12CC1C(=O)c1ccccc1O2 (stereo unspecified)
